Source: the OPERA property sets (Mansouri et al. 2018)

Details: not given
Work on Clc1cc2c(oc3c(Cl)cccc32)c(Cl)c1Cl yielded a log10 vapour pressure (mmHg) of -7.4 and a melting point of 190 °C. Nc1ccc(-c2ccccc2)cc1 showed a boiling point of 302 °C and a melting point of 53.5 °C. Nc1ncnc2c1ncn2[C@]1(CO)O[C@H](CO)[C@@H](O)[C@H]1O gave a melting point of 212 °C. Work on C[C@H](CC(=O)O)[C@H]1CC[C@H]2[C@@H]3CC[C@@H]4CCCC[C@]4(C)[C@H]3CC[C@]12C yielded a melting point of 177 °C. Work on O=CC=Cc1ccco1 yielded a melting point of 54 °C. O=C(O)C=Cc1ccc(Cl)cc1 showed a melting point of 249 °C. With O=C1Nc2ccc(Cl)cc2C(c2ccccc2Cl)=NC1O (stereo not drawn) the melting point was 167 °C. With C=CCOc1ccccc1 the boiling point was 192 °C. Work on O=C(O)COc1c(Cl)ccc(Cl)c1Cl yielded a melting point of 148 °C. For O=C1c2c(O)ccc(Nc3ccccc3)c2C(=O)c2c([N+](=O)[O-])ccc(O)c21, the ready biodegradability was “not readily biodegradable”. In the case of c1ccc2c(c1)NCCN2, the boiling point is reported as 289 °C and the melting point is reported as 99 °C. Compound Cc1ccc(NCc2ccccc2)cc1 has a boiling point of 319 °C and a melting point of 19.5 °C. CC(CCC(=O)O)(c1ccc(O)cc1)c1ccc(O)cc1 gave a melting point of 172 °C. With CN(c1c(Br)cc(Br)cc1Br)c1c([N+](=O)[O-])cc([N+](=O)[O-])cc1C(F)(F)F the log10 vapour pressure (mmHg) was -7.01 and the melting point was 150 °C. CC(C)CC(C)N (stereo not drawn) showed a boiling point of 109 °C and a log10 Henry constant (atm·m³/mol) of -4.51. COc1ccc(C(=O)c2ccccc2)cc1 showed a boiling point of 355 °C and a melting point of 61.5 °C. Clc1nc(Cl)nc(Cl)n1 showed a boiling point of 192 °C and a melting point of 154 °C. For CC(=O)c1ccc(C)s1, the boiling point was 232 °C and the melting point was 27.5 °C. Compound CCOC(=O)c1ccc(O)c(OC)c1 has a boiling point of 292 °C and a melting point of 44 °C. For CN1Cc2c(ccc3c2OCO3)[C@@H]2[C@H]1c1cc3c(cc1C[C@@H]2O)OCO3, the melting point was 136 °C. Compound COCCOCCOCCOCCOC has a boiling point of 275 °C. For CC(=O)CCC(=O)OC(C)C, the boiling point was 209 °C. In the case of O=C(O)C(I)I, the melting point is reported as 110 °C. In the case of CC(C)(C)CC(C)(C)c1ccc(OCCOCC[N+](C)(C)Cc2ccccc2)cc1, the ready biodegradability is reported as “not readily biodegradable”. With CC(C)OB(OC(C)C)OC(C)C the boiling point was 140 °C and the log10 vapour pressure (mmHg) was 0.875. CC(C)CCN(CCC(C)C)CCC(C)C showed a boiling point of 235 °C. With CCOC(=O)c1cncn1C(C)c1ccccc1 (stereo not drawn) the melting point was 67 °C. With CCCC[Si](Cl)(Cl)Cl the boiling point was 148 °C. CC1(O)CCC(C(C)(C)O)CC1 (stereo not drawn) gave a melting point of 158 °C. Cn1cc[nH]c1=S gave a boiling point of 280 °C and a melting point of 146 °C. Cc1cn([C@H]2C[C@H](F)[C@@H](CO)O2)c(=O)[nH]c1=O showed a melting point of 177 °C. CCCCCCC(C)NC(C)CCCCCC (stereo not drawn) gave a boiling point of 283 °C. Compound C has a boiling point of -162 °C, a log10 Koa of -0.38 and a log10 vapour pressure (mmHg) of 5.67. It also gave a melting point of -182 °C. Compound OCCCc1cccnc1 has a boiling point of 284 °C. In the case of CC1(C)OCCO1, the boiling point is reported as 92.5 °C. For O=[N+]([O-])c1ccc(Oc2ccc(C(F)(F)F)cc2[N+](=O)[O-])cc1, the melting point was 94 °C. CCCCCCCCCCCCCCCCCCCCCCCCCCCCCCCCCCC showed a boiling point of 490 °C, a log10 vapour pressure (mmHg) of -11.3 and a melting point of 75 °C. The ready biodegradability was “readily biodegradable”. For CC(O)(P(=O)(O)O)P(=O)(O)O, the ready biodegradability was “readily biodegradable”. Work on CCCCCCCCCCCCCCCCCC(=O)OCCCCCCCCCCCCCCCC yielded a melting point of 57 °C. In the case of CCCCOC(=O)C(C)CC (stereo not drawn), the boiling point is reported as 179 °C. Work on Brc1ccc(Oc2ccc(Br)c(Br)c2Br)c(Br)c1 yielded a log10 Koa of 11.7, a log10 vapour pressure (mmHg) of -8.14 and a logP of 7.37. In the case of Cc1cc([N+](=O)[O-])ccc1O, the melting point is reported as 96 °C. For CCCCOCCOCCO, the boiling point was 231 °C, the log10 Henry constant (atm·m³/mol) was -8.14 and the log10 vapour pressure (mmHg) was -1.66. The melting point was -68 °C and the ready biodegradability was “readily biodegradable”. For C1CC[C@@H]2NCCC[C@@H]2C1, the boiling point was 206 °C and the melting point was -40 °C. With CCC(=O)Nc1cc(N(CCOC(C)=O)CCOC(C)=O)ccc1N=Nc1ccc([N+](=O)[O-])cc1Cl the ready biodegradability was “not readily biodegradable”. For CCCC[P+](CCCC)(CCCC)Cc1ccc(Cl)cc1Cl.[Cl-], the log10 vapour pressure (mmHg) was -6.15 and the melting point was 117 °C. For Clc1cccnc1, the boiling point was 148 °C. Work on COC(C)(C)CCCC(C)C/C=C/C(C)=C/C(=O)OC(C)C (stereo not drawn) yielded a log10 vapour pressure (mmHg) of -4.63. For C=CC(=O)OCCOC, the ready biodegradability was “readily biodegradable”. Clc1cc2oc3cc(Cl)c(Cl)c(Cl)c3c2cc1Cl showed a log10 vapour pressure (mmHg) of -8.76 and a melting point of 225 °C. Work on CCCCS(=O)CCCC yielded a melting point of 32.6 °C. Compound Oc1ccc2ccccc2c1-c1c(O)ccc2ccccc12 has a melting point of 216 °C. With COc1cc(NS(=O)(=O)c2ccc(N)cc2)nc(C)n1 the melting point was 146 °C. Clc1cc2oc3c(Cl)cc(Cl)c(Cl)c3c2cc1Cl gave a log10 vapour pressure (mmHg) of -8.82 and a melting point of 237 °C. In the case of CCCCCCOC(=O)CCCCC, the boiling point is reported as 246 °C and the melting point is reported as -55 °C. Compound OB(O)c1ccc(Cl)cc1 has a melting point of 286 °C. In the case of C#CCCC#C, the boiling point is reported as 86 °C and the melting point is reported as -6 °C. COCC(O)CO (stereo not drawn) gave a boiling point of 220 °C. CC1=C(C)C(=O)C=CC1=O showed a melting point of 55 °C. O=C(O)c1cc([N+](=O)[O-])ccc1Cl gave a melting point of 166 °C. In the case of CNC(=O)Oc1ccccc1C(C)C, the log10 vapour pressure (mmHg) is reported as -4.68, the melting point is reported as 94 °C and the ready biodegradability is reported as “not readily biodegradable”. C[Si](C)(Cl)C(Cl)Cl gave a boiling point of 149 °C and a melting point of -48 °C. CCCc1ccc(O)cc1O showed a melting point of 82.5 °C. With O=C(Oc1cccc(O)c1)c1ccccc1 the melting point was 134 °C and the ready biodegradability was “readily biodegradable”. For CC(C)(C)CC1(C)CO1 (stereo not drawn), the boiling point was 141 °C and the melting point was -64 °C. Work on CC(C=O)c1ccccc1 (stereo not drawn) yielded a boiling point of 204 °C and a log10 vapour pressure (mmHg) of -0.569. CCC(C)C(C)CC (stereo not drawn) showed a boiling point of 118 °C, a log10 biodegradation half-life (days) of 0.477 and a log10 vapour pressure (mmHg) of 1.34. With Cc1ccc2c(c1)CC(C)CC2 (stereo not drawn) the boiling point was 237 °C. O=C(O)c1nc(Cl)ccc1Cl showed a log10 Koc (L/kg) of 1.56, a log10 vapour pressure (mmHg) of -4.92 and a melting point of 151 °C. Work on Cc1ccc(S(=O)(=O)NC(=O)NN2CCCCCC2)cc1 yielded a melting point of 172 °C. Oc1c(O)c(Br)c(Br)c(Br)c1Br showed a melting point of 191 °C. In the case of O=c1[nH]c2ccccc2o1, the boiling point is reported as 335 °C and the melting point is reported as 138 °C. O=C1CCCCCCN1 showed a melting point of 36.5 °C. For COc1cc(NCc2ccc3nc(N)nc(N)c3c2C)cc(OC)c1OC, the melting point was 216 °C. CC(N)Cc1ccccc1 (stereo not drawn) gave a log10 vapour pressure (mmHg) of -0.62. Clc1ccc(C(Cl)(Cl)Cl)cc1 gave a boiling point of 245 °C. For CCCCCCCCCCCCCCC(=O)O, the boiling point was 339 °C, the log10 vapour pressure (mmHg) was -6.36 and the melting point was 52.3 °C. Work on CCOC(C)(OCC)OCC yielded a boiling point of 145 °C. In the case of CCC(C)(C)I, the boiling point is reported as 124 °C. For CCCCC(CC)C(=O)OCC(COC(=O)C(CC)CCCC)(COC(=O)C(CC)CCCC)COC(=O)C(CC)CCCC (stereo not drawn), the ready biodegradability was “not readily biodegradable”. With CC(=O)Oc1cccc2ccccc12 the melting point was 44.5 °C. Work on Cc1cncnc1 yielded a boiling point of 153 °C and a melting point of 30.5 °C. For CCCCCCCCCCCCCCCCCCNC, the melting point was 44 °C. For CN1CCN(C(=O)OC2C3=C(SCCS3)C(=O)N2c2ccc3ccc(Cl)nc3n2)CC1 (stereo not drawn), the melting point was 280 °C. For COCCc1ccccn1, the boiling point was 203 °C. With O=[N+]([O-])c1cc(Cl)c(Cl)cc1Cl the boiling point was 288 °C and the melting point was 57.5 °C. For CCNc1nc(Cl)nc(NC(C)(C)C#N)n1, the log10 Koc (L/kg) was 2.28, the log10 vapour pressure (mmHg) was -6.86 and the melting point was 168 °C. With CC(=O)Oc1ccccc1C the boiling point was 208 °C. CC(C)CCC(C)C(C)C (stereo not drawn) showed a boiling point of 156 °C. In the case of CC12CC1(C)C(=O)N(c1cc(Cl)cc(Cl)c1)C2=O (stereo not drawn), the log10 Koc (L/kg) is reported as 3.18 and the melting point is reported as 166 °C. Work on COc1cc2c(cc1O)[C@H](Cc1ccc(O)cc1)NCC2 yielded a melting point of 220 °C. With Clc1cc(Cl)cc(-c2cc(Cl)c(Cl)c(Cl)c2Cl)c1 the log10 Henry constant (atm·m³/mol) was -4.7. CO[Si](C)(C)OC gave a boiling point of 82 °C. With NCCNCc1ccccc1 the ready biodegradability was “not readily biodegradable”. With Cc1cc(C)c(N)cc1C the boiling point was 234 °C, the log10 Henry constant (atm·m³/mol) was -5.61 and the log10 vapour pressure (mmHg) was -2.05. The melting point was 68 °C. Compound CN[C@@H](C)[C@H](O)c1ccccc1 has a boiling point of 255 °C. In the case of O=[N+]([O-])c1cc(C(F)(F)F)c(Cl)c([N+](=O)[O-])c1Nc1ncc(C(F)(F)F)cc1Cl, the melting point is reported as 113 °C. In the case of S=C=Nc1ccc(Cl)cc1, the boiling point is reported as 250 °C and the melting point is reported as 46 °C. With Fc1cc2c(cc1F)Oc1cc(Br)c(Br)cc1O2 the log10 vapour pressure (mmHg) was -7.74 and the melting point was 210 °C. Oc1cc(Br)cc(Br)c1 gave a boiling point of 274 °C and a melting point of 81 °C.

Same assay, conditions: fish
With Brc1cc(Br)c(Oc2c(Br)c(Br)c(Br)c(Br)c2Br)cc1Br the log10 BCF was 5.93. In the case of c1ccc2cc3c(ccc4c5ccccc5ccc34)cc2c1, the log10 biotransformation half-life (days) is reported as 0.58. For Brc1ccc(Oc2ccc(Br)c(Br)c2Br)c(Br)c1, the log10 biotransformation half-life (days) was 1.34. Compound Clc1cc2oc3cc(Cl)c(Cl)c(Cl)c3c2cc1Cl has a log10 BCF of 3.58. Work on CNC(=O)Oc1ccccc1C(C)C yielded a log10 BCF of 0.95 and a log10 biotransformation half-life (days) of -1.25. Compound Brc1cc(Br)c(Oc2c(Br)c(Br)c(Br)c(Br)c2Br)c(Br)c1 has a log10 BCF of 5.75. Work on O=[N+]([O-])c1cc(Cl)c(Cl)cc1Cl yielded a log10 BCF of 1.84 and a log10 biotransformation half-life (days) of -0.64.
